Source: patent publication US6362212B1, “Oxime derivative and bactericide containing the same as active ingredient” (Shionogi & Company, Ltd., priority 1994, dated 2002)

Legend:
[1] = system: Erysiphe graminis f. sp. tritici; test: Controlling effect on Erysiphe graminis f. sp. tritici by foliage application (pot experiment); type: in vivo; conditions: foliage spray on wheat (cv. NORIN No. 61) seedlings, infected area after 10 days in greenhouse at 20° C.
Protocol: The following Test Examples illustrate the effects of the fungicide of the present invention. (I. Controlling effects on various plant diseases by foliage application (pot experiment)) A test compound was dissolved in a small amount of N,N-dimethylformamide, and the solution was diluted to a given concentration with distilled water containing a spreader. Thus, a liquid sample to be tested was prepared. The liquid sample was sprayed to test plants, and 24 hours thereafter, pathogens were inoculated by the method described below. […] The seeds of wheat (cv.: NORIN No. 61) were sown in plastic cups (each 9 cm in diameter), followed by cultivation for 2 to 3 weeks. The test compound in the form of a solution or suspension was sprayed to the seedlings, and conidia of Erysiphe graminis f. sp. tritici cultured on wheat leaves were dropped on the test plants to inoculate the plants with the pathogen. After the inoculation, the plants were kept in a greenhouse at 20° C. for 10 days. The infected area on the leaf was observed, and the percent control was calculated.

Sphaerotheca fuliginea = test: Controlling effect on Sphaerotheca fuliginea by foliage application (pot experiment); type: in vivo; conditions: foliage spray on cucumber (cv. TSUKUBASHIROIBO) first leaves, infected area after 10 days in greenhouse at 20° C.
Protocol: The following Test Examples illustrate the effects of the fungicide of the present invention. (I. Controlling effects on various plant diseases by foliage application (pot experiment)) A test compound was dissolved in a small amount of N,N-dimethylformamide, and the solution was diluted to a given concentration with distilled water containing a spreader. Thus, a liquid sample to be tested was prepared. The liquid sample was sprayed to test plants, and 24 hours thereafter, pathogens were inoculated by the method described below. […] Seeds of cucumber ([…]) were sown in plastic cups (each 9 cm in diameter), followed by cultivation for 2 to 3 weeks. The liquid test sample in the form of a solution or suspension was sprayed on the surface of their first leaves. The pathogen was inoculated to the leaves by spraying a conidia suspension of Sphaerotheca fuliginea which had been cultured on the cucumber leaves. After the inoculation, the plants were kept in a greenhouse at 20° C. for 10 days. Then, the infected area on the leaf was observed, and the percent control was calculated.

Row | SMILES | Controlling effect on ErYsiphe graminis f. sp. tritici by foliage application at 500 ppm (percent control) [1] [percent control] | Controlling effect on Sphaerotheca fuliginea by foliage application at 500 ppm (percent control) (Sphaerotheca fuliginea)
1 | CON=C(c1ccccc1COc1ccc(F)cc1)c1nccn1C (single isomer, unassigned) [104B] | 70 | 
2 | CCON=C(c1ccccc1COc1ccccc1)n1cnc(C)c1 [compound 235] | 90 | 
3 | CON=C(C1=NCCN1)c1ccccc1COc1ccccc1Cl [compound 1455] | 70 | 
4 | CON=C(c1nnco1)c1ccccc1COc1ccc(Cl)cc1 [compound 707] | 90 | 100
5 | CON=C(C1=NCCN1C)c1ccccc1Oc1ccccc1 (mixture of isomers) [compound 1161] | 90 | 70
6 | CON=C(c1ccccc1COc1cccc(C(F)(F)F)c1)c1nccn1C (single isomer, unassigned) [122B] |  | 100
7 | CON=C(C1=NCCS1)c1ccccc1COc1cc(C)ccc1C [compound 1514] | 70 | 97
8 | CON=C(C1=NCCO1)c1ccccc1COc1cccc(C)c1 [compound 1311] | 70 | 70
9 | CON=C(c1ncno1)c1ccccc1COc1cc(C)ccc1C [compound 1590] |  | 70
10 | CON=C(C1=NCCO1)c1ccccc1Oc1ncc(C(F)(F)F)cc1Cl [compound 1829] | 90 | 
11 | CON=C(c1ccco1)c1ccccc1COc1cc(C)ccc1C (single isomer, unassigned) [1634A] | 97 | 100
12 | CON=C(c1ncon1)c1ccccc1COc1cc(C)ccc1C (single isomer, unassigned) [836B] | 97 | 100
13 | CON=C(c1ccccc1COc1cc(C)ccc1C)c1ccnn1C (single isomer, unassigned) [1554B] | 70 | 
14 | CON=C(C1=NCCN1C)c1ccccc1COc1cccc(C(F)(F)F)c1 (single isomer, unassigned) [1122A] | 70 | 
15 | CON=C(c1ncon1)c1ccccc1COc1ccccc1Cl [compound 805] |  | 97
16 | CON=C(C1=NCCN1C)c1ccccc1COc1ccccc1C(F)(F)F [compound 1121] | 90 | 100
17 | CON=C(C1=NCCO1)c1ccccc1COc1ccccc1Cl [compound 1305] |  | 70
18 | CON=C(c1ncon1)c1ccccc1COc1cc(C)ccc1C (single isomer, unassigned) [836A] | 97 | 100
19 | C=CCON=C(c1ccon1)c1ccccc1COc1ccccc1C (mixture of isomers) [compound 1667] | 70 | 
20 | CON=C(c1cc(C)ns1)c1ccccc1COc1cc(C)ccc1C [compound 1654] | 70 | 
21 | CON=C(c1noc(C)n1)c1cc(Cl)ccc1Oc1ccc(C(F)(F)F)cn1 [compound 2120] |  | 70

Row | SMILES | Controlling effect on ErYsiphe graminis f. sp. tritici by foliage application at 500 ppm (percent control) [1] [percent control] | Controlling effect on Sphaerotheca fuliginea by foliage application at 500 ppm (percent control) (Sphaerotheca fuliginea)
22 | CON=C(c1nnn(C)n1)c1ccccc1COc1ccccc1C [compound 2012] | 70 | 100
23 | CON=C(C1=NCCO1)c1ccccc1COc1ccc(C)cc1 [compound 1312] |  | 70
24 | CON=C(c1cc(C)no1)c1ccccc1COc1ccccc1Cl (single isomer, unassigned) [605B] | 90 | 100
25 | CON=C(C1=NCCN1C)c1ccccc1COc1ccc(C)cc1 [compound 1114] | 70 | 70
26 | CON=C(C1=NCCN1C)c1ccccc1COc1ccc(C(F)(F)F)cc1 [compound 1123] | 90 | 90
27 | CON=C(c1ccccc1COc1ccccc1C)c1nccn1C (single isomer, unassigned) [112B] |  | 90
28 | CON=C(C1=NCCS1)c1ccccc1Oc1ccccc1 (mixture of isomers) [compound 1515] | 90 | 70
29 | CON=C(c1ccco1)c1ccccc1COc1cc(C)ccc1C (single isomer, unassigned) [1634B] |  | 70
30 | CON=C(c1cnco1)c1ccccc1Oc1ccccc1 [compound 1735] | 97 | 100
31 | CCON=C(c1ccon1)c1ccccc1COc1ccccc1C (mixture of isomers) [compound 1665] | 70 | 
32 | CON=C(c1cc(C)no1)c1ccccc1COc1ccc(Cl)cc1C (single isomer, unassigned) [641B] | 90 | 100
33 | CON=C(c1ccccc1COc1ccc(C)cc1)n1cncn1 [compound 270] | 90 | 97
34 | CON=C(C1=NCCO1)c1ccccc1Oc1ccc(C(F)(F)F)cn1 [compound 1826] |  | 70
35 | CON=C(c1ccccc1COc1cc(C)ccc1C)n1cccn1 [compound 294] |  | 97
36 | CON=C(c1ccccc1COc1ccccc1Cl)n1cncn1 [compound 265] | 70 | 
37 | CON=C(c1ncc[nH]1)c1ccccc1COc1cc(C)ccc1C [compound 1428] | 70 | 100
38 | CON=C(C1=NCCN1C)c1ccccc1COc1ccccc1 [compound 1101] | 90 | 
39 | CON=C(c1ccccc1COc1cc(Cl)ccc1Cl)c1nccn1C (single isomer, unassigned) [131B] |  | 100
40 | CON=C(c1ccccc1COc1ccccc1)c1nccn1C (single isomer, unassigned) [101A] |  | 70
41 | CON=C(c1ccccc1COc1cccc(C)c1)c1nccn1C (single isomer, unassigned) [113B] |  | 90
42 | CON=C(c1ccccc1COc1ccc(-c2ccccc2)cc1)c1nccn1C (single isomer, unassigned) [144B] |  | 70
